{"source": "patent US20200000842A1", "about": "“COMPOSITION AND METHOD FOR IMPROVING QOL WITH MOLECULAR HYDROGEN IN CANCER- HAVING SUBJECT” (MiZ Company Limited, priority 2018, published 2020)", "key": {"[1]": {"test_system": "patient with stage 4 terminal pancreatic cancer", "description": "(§1) A patient with stage 4 terminal pancreatic cancer (person) breathed a mixed gas of hydrogen and air using a gaseous hydrogen inhalation apparatus (MHG-2000α (registered trademark); MiZ Company Limited) for about 1 to 3 hours per day over about 8 months. The hydrogen concentration in MHG-2000α is about 6 to 7% by volume (hydrogen generation rate: about 140 ml/min)."}, "[2]": {"test_system": "patient with terminal systemic metastatic cancer", "settings": "person, 3 times about 2 hours each over about 1 month", "description": "as §1, with “with” for “with stage 4”, “systemic metastatic” for “pancreatic”, “Limited, Kanagawa, Japan) total 3 times” for “Limited)”, “2” for “1 to 3”, “each time” for “per day”, “1 month before death of the patient.” for “8 months.”"}, "[3]": {"settings": "normal temperature and normal pressure; cited from earlier work"}, "[4]": {"test_system": "patient with terminal pancreatic cancer", "settings": "person", "description": "A patient with terminal pancreatic cancer (person) breathed a mixed gas of hydrogen and air using a gaseous hydrogen inhalation apparatus (MHG-2000α (registered trademark); MiZ Company Limited) over about 4 months. Here, the mixed gas of hydrogen and air was breathed twice a week (duration each time: 1 to 3 hours) over first 2 months and for about 24 hours per day over subsequent 2 months. The hydrogen concentration in MHG-2000α is about 6 to 7% by volume (hydrogen generation rate: about 140 ml/min)."}, "[5]": {"settings": "about 6 to 7% by volume hydrogen"}, "[6]": {"settings": "about 6 to 7% by volume hydrogen over about 4 months"}}}
{"smiles": "[HH]", "note": "[hydrogen gas, molecular hydrogen]", "values": [{"measurement": "blood level of CA19-9 (pancreatic cancer marker)", "setting": "[1]; about 6 months after the breathing of hydrogen gas, FIG. 1", "value": "sharply decreased"}, {"measurement": "physical fatigue", "setting": "[1]; after the first breathing", "value": "hardly complained about physical fatigue"}, {"measurement": "survival after being told life expectancy of 3 months", "setting": "[1]; person, stage 4, breathing about 1 to 3 hours per day", "value": "≥ 9", "unit": "months"}, {"measurement": "growth of cancer by CT imaging examination once a month", "setting": "[1]; person, about 6 to 7% by volume hydrogen, about 1 to 3 hours per day over about 8 months", "value": "no tendency of growth of cancer"}, {"measurement": "appetite", "setting": "[2]; [5]", "value": "recovered"}, {"measurement": "complexion", "setting": "[2]; [5]", "value": "improved"}, {"measurement": "cancerous pain", "setting": "[2]; mixed gas of hydrogen and air, about 6 to 7% by volume, no opioid", "value": "reduced"}, {"measurement": "solubility in water", "setting": "[3]", "value": "about 1.6 ppm"}, {"measurement": "appetite", "setting": "[4]; [6]", "value": "had appetite"}, {"measurement": "insomnia", "setting": "[4]; [6]", "value": "improved in insomnia"}, {"measurement": "cancerous pain", "setting": "[4]; about 6 to 7% by volume hydrogen over about 4 months (twice a week 1 to 3 hours for 2 months, then about 24 hours per day for 2 months), no opioid", "value": "did not complain about pain or oppression"}]}
